Here are results for 12 molecules from ChEMBL document CHEMBL1201862, “PubChem BioAssay data set” (2004).

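Results reflect a 48-hour exposure of cells in 96-well plates to compound at five concentrations. GI50 = concentration required for 50% inhibition of growth.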 Activity calls are given as the source filed them. Rule as the data show it: active = GI50 up to about 1.1 µM and inactive = higher. A value given as a limit tells only on which side of the number the result lay.

Some test systems named below: HT-29; NCI-H226; U-251; OVCAR-8; M19-MEL; HL-60; SF-268; UO-31; OVCAR-5; SF-539; HCT-116; IGROV-1; MOLT-4; RXF 393; SK-MEL-5; NCI-H460; SK-OV-3; NCI-H23; SR.
Assay in all cases: NCI tumour cell line growth inhibition, 48 h

`COc1ccc(C(O)c2cc(OC)c(OC)c(OC)c2)cc1` (stereo not drawn): the GI50 in the test with HT-29 is 7.16 µM (inactive); with NCI-H226, 32.4 µM (inactive); in the test with U-251 it was 34 µM (inactive); in the test on OVCAR-8, 30.3 µM (inactive); with M19-MEL it was 21 µM (inactive); in the test on HL-60 it was 6.11 µM (inactive). Moreover, the GI50 in the test with SF-268 was 39 µM (inactive); with UO-31, 30.6 µM (inactive); in the test on OVCAR-5 it was > 100 µM (inactive); in the test on SF-539 it was 21.3 µM (inactive); in the test with HCT-116 it was 24.2 µM (inactive); in the test on IGROV-1, 18 µM (inactive). The GI50 in the test with MOLT-4 was 16.9 µM (inactive); with RXF 393, 10.1 µM (inactive); in the test with SK-MEL-5 it was 17 µM (inactive); in the test with NCI-H460 it was 31.6 µM (inactive).

`CCOC(=O)C(C)c1cc(C2(C)OCCO2)c(C)o1` (stereo not drawn): the GI50 with U-251, in the test on OVCAR-8, in the test on M19-MEL, in the test with HL-60, with SK-OV-3 and in the test on SF-268 was > 100 µM (inactive) each time. For the same molecule, the GI50 with UO-31, with OVCAR-5, in the test with SF-539, in the test with HCT-116, in the test on IGROV-1 and with MOLT-4 was > 100 µM (inactive) each time. For the same molecule, the GI50 in the test on NCI-H23, with RXF 393, in the test with SK-MEL-5 and with NCI-H460 was > 100 µM (inactive) each time.

For the molecule `C/C=C/C[C@@H](C)[C@@H](O)[C@H]1C(=O)N[C@@H](CC)C(=O)N(C)CC(=O)N(C)[C@@H](CC(C)C)C(=O)N[C@@H](C(C)C)C(=O)N(C)[C@@H](CC(C)C)C(=O)N[C@@H](C)C(=O)N[C@H](C)C(=O)N(C)[C@@H](CC(C)C)C(=O)N(C)[C@@H](CC(C)C)C(=O)N(C)[C@@H](C(C)C)C(=O)N1C` [CYCLOSPORINE], the GI50 in the test with HT-29 was 2.29 µM (inactive); with NCI-H226 it was 4.39 µM (inactive); in the test on U-251, 7.66 µM (inactive); in the test with OVCAR-8, 12.2 µM (inactive); with M19-MEL, 2.37 µM (inactive); in the test on HL-60, 2.25 µM (inactive). The GI50 in the test on SF-268 is 7.26 µM (inactive); with UO-31, 3.26 µM (inactive); in the test on OVCAR-5, 6.93 µM (inactive); in the test on SF-539, 4.3 µM (inactive); in the test with IGROV-1, 5.24 µM (inactive); in the test on MOLT-4 it was 2.98 µM (inactive). The GI50 was 5.37 µM (inactive) in the test with NCI-H23; 1.47 µM (inactive) in the test with SR; 7.45 µM (inactive) in the test on RXF 393; 3.78 µM (inactive) with SK-MEL-5; 3.87 µM (inactive) in the test on NCI-H460.

Take `COc1ccccc1C1C(Cl)C(=O)N1NC(=O)Cc1ccccc1` (stereo not drawn): the GI50 with HT-29 is > 100 µM (inactive); with NCI-H226, 48.5 µM (inactive); in the test on U-251, > 100 µM (inactive); in the test with OVCAR-8 it was > 100 µM (inactive); in the test with M19-MEL, > 100 µM (inactive); in the test with HL-60, 34.8 µM (inactive). The GI50 in the test on SK-OV-3 was 71.4 µM (inactive); in the test on SF-268, > 100 µM (inactive); in the test with UO-31, 32.1 µM (inactive); in the test with OVCAR-5, > 100 µM (inactive); in the test on HCT-116, 62.8 µM (inactive); in the test on IGROV-1, > 100 µM (inactive). The GI50 with MOLT-4 is 27.7 µM (inactive); with NCI-H23 it was > 100 µM (inactive); in the test with SR, 26.2 µM (inactive); in the test on RXF 393, 53.1 µM (inactive); with SK-MEL-5, 61.9 µM (inactive); in the test on NCI-H460, > 100 µM (inactive).

As for `CCCCCCCCCC(=O)CC(=O)c1c(O)cccc1O`, the GI50 in the test on HT-29 was 27.3 µM (inactive); with NCI-H226 it was 25.9 µM (inactive); in the test on U-251 it was 24.9 µM (inactive); in the test on OVCAR-8, 38 µM (inactive); in the test on M19-MEL, 38.5 µM (inactive); in the test on HL-60 it was 21.4 µM (inactive). For the same molecule, the GI50 with SK-OV-3 is 20.5 µM (inactive); with SF-268, 33.8 µM (inactive); in the test with UO-31, 35.1 µM (inactive); in the test on OVCAR-5, 22.9 µM (inactive); with SF-539, 45.4 µM (inactive); in the test with HCT-116, 33.4 µM (inactive). The GI50 with IGROV-1 was 32.3 µM (inactive); in the test with MOLT-4, 31 µM (inactive); in the test with NCI-H23, 30.5 µM (inactive); in the test on RXF 393, 27 µM (inactive); with NCI-H460, 34.5 µM (inactive).

Consider `CN(N=O)C(=O)NC(CCCCNC(=O)OCc1ccccc1)C(=O)OCc1ccccc1` (stereo not drawn), for which the GI50 in the test on HT-29 was 66.4 µM (inactive); in the test on NCI-H226 it was 42.9 µM (inactive); with U-251, 53.3 µM (inactive); in the test on OVCAR-8 it was 19.2 µM (inactive); in the test with M19-MEL, 27.1 µM (inactive); in the test on HL-60 it was 25.2 µM (inactive). The GI50 in the test with SK-OV-3 is > 100 µM (inactive); in the test with UO-31, 20.2 µM (inactive); in the test with OVCAR-5, > 100 µM (inactive); in the test on SF-539, 17.4 µM (inactive); with HCT-116, 56.8 µM (inactive); in the test with IGROV-1, > 100 µM (inactive). For the same molecule, the GI50 in the test on MOLT-4 was 26.6 µM (inactive); in the test with NCI-H23, 20.7 µM (inactive); in the test with SR, 14.9 µM (inactive); with RXF 393, 33.7 µM (inactive); in the test on SK-MEL-5 it was 20.4 µM (inactive); in the test on NCI-H460 it was 43.9 µM (inactive).

In the case of `COc1nc2c(nc(N)n2C2OC(CO)C(O)C(O)C2O)c(=O)n1C` (stereo not drawn), the GI50 in the test on HT-29, in the test with NCI-H226, in the test on U-251, in the test on OVCAR-8, in the test with M19-MEL and with HL-60 was > 100 µM (inactive) in each case. For the same molecule, the GI50 with SK-OV-3, in the test on SF-268, with UO-31, with SF-539, with HCT-116 and in the test on IGROV-1 was > 100 µM (inactive) in each case. Moreover, the GI50 with NCI-H23, in the test with SR, with RXF 393, with SK-MEL-5 and in the test with NCI-H460 was > 100 µM (inactive) in each case.

`CCOC(=O)N(c1ccccc1)N(CC)C(=O)/C(C)=N/Nc1ccc([N+](=O)[O-])cc1`: the GI50 in the test with HT-29 was 17.1 µM (inactive); with NCI-H226, 22 µM (inactive); with U-251 it was 15 µM (inactive); in the test with OVCAR-8, 17.4 µM (inactive); with M19-MEL, 17.5 µM (inactive); in the test with HL-60, 11 µM (inactive). Also, the GI50 in the test with SK-OV-3 is 19.8 µM (inactive); in the test on SF-268 it was 17.2 µM (inactive); in the test on UO-31, 14.8 µM (inactive); in the test with SF-539, 16.1 µM (inactive); in the test on HCT-116, 14.1 µM (inactive); with IGROV-1, 17.3 µM (inactive). Moreover, the GI50 was 17.7 µM (inactive) in the test on MOLT-4, 18 µM (inactive) in the test on NCI-H23, 21.7 µM (inactive) with SR and 13 µM (inactive) in the test with RXF 393.

With `c1cc(C2O[C@H]3CCCN3[C@@H]2c2ccncc2)ccn1` (stereo partly drawn), the GI50 with HT-29, in the test with NCI-H226, in the test with U-251, with OVCAR-8, in the test on M19-MEL and with SK-OV-3 was > 100 µM (inactive) throughout. The GI50 in the test with SF-268, with UO-31, in the test on OVCAR-5, in the test on SF-539, in the test with HCT-116 and with IGROV-1 was > 100 µM (inactive) each time. The GI50 in the test on MOLT-4, in the test on NCI-H23, in the test with RXF 393, in the test on SK-MEL-5 and in the test on NCI-H460 was > 100 µM (inactive) each time.

Take `COc1cc([C@@H]2c3cc4c(c(O)c3C[C@H]3COC(=O)[C@@H]32)OCO4)cc(OC)c1O`: the GI50 is 0.577 µM (active) in the test with HT-29; < 0.02 µM (active) in the test with NCI-H226; 0.0249 µM (active) with OVCAR-8; 0.237 µM (active) in the test with M19-MEL; < 0.02 µM (active) in the test on SF-268; < 0.02 µM (active) in the test on UO-31. Further, the GI50 is 29.2 µM (inactive) in the test with OVCAR-5; 0.0205 µM (active) in the test with HCT-116; 0.0277 µM (active) in the test on IGROV-1; 0.0853 µM (active) in the test with NCI-H23; 0.00307 µM (active) in the test with SR; 0.233 µM (active) with RXF 393. The GI50 with SK-MEL-5 was < 0.02 µM (active).

Turning to `CCOC(=O)NC(=O)c1cn(CCCCCCCCCCC(=O)NCCCN2CCN(CCCNC(=O)CCCCCCCCCCn3cc(C(=O)NC(=O)OCC)c(=O)[nH]c3=O)CC2)c(=O)[nH]c1=O`, the GI50 in the test with HT-29, in the test on U-251, with OVCAR-8, in the test with M19-MEL, in the test on HL-60 and in the test on SK-OV-3 was > 100 µM (inactive) in each case. The GI50 in the test on SF-268, in the test on UO-31, in the test with OVCAR-5, in the test with SF-539, in the test with HCT-116 and in the test on MOLT-4 was > 100 µM (inactive) each time. Moreover, the GI50 in the test with NCI-H23, with SR and in the test with NCI-H460 was > 100 µM (inactive) throughout.

Consider `CCCCCCCCCCCCOC(=S)NCCCC`, for which the GI50 in the test with HT-29 was 19 µM (inactive); in the test on NCI-H226 it was 20.1 µM (inactive); in the test on U-251 it was 20.2 µM (inactive); in the test with OVCAR-8, 18.7 µM (inactive); in the test with M19-MEL, 32.7 µM (inactive); in the test with HL-60, 18.5 µM (inactive). The GI50 was 18.7 µM (inactive) in the test with SK-OV-3; 26.8 µM (inactive) with SF-268; 3.37 µM (inactive) in the test with UO-31; 19.8 µM (inactive) in the test with OVCAR-5; 21.3 µM (inactive) with SF-539; 18.6 µM (inactive) in the test on HCT-116. The GI50 is 25.6 µM (inactive) in the test with IGROV-1; 15.9 µM (inactive) in the test with MOLT-4; 23 µM (inactive) in the test on NCI-H23; 19 µM (inactive) in the test with SR; 23.8 µM (inactive) with RXF 393; 24.4 µM (inactive) with NCI-H460.
